Experimental data reported in PubChem BioAssay AID1963434 (Molecular Pharmacology Branch, DTP, NCI, 2024).

Test system: 755483-174-R-J1-PDC complex spheroid growth, percent test/control
Assay: Anticancer human tumor 755483-174-R-J1-PDC patient-derived rhabdomyosarcoma cell line growth inhibition [Asc]
Conditions: for IC50: curve of first compound; for viability, T/C: stronger effect = lower value
Method: Multicellular complex tumor spheroid response to apoptosis pathway targeting inhibitors Alrizomadlin, Pelcitoclax, and Dasminapant in combination with a variety of drugs and investigational agents in selected tumor cell lines
The MDM2 inhibitor alrizomadlin, the Bcl-2/Bcl-xL inhibitor pelcitoclax, and the IAPs inhibitor dasminapant were evaluated both individually and in combination with standard of care and investigational anticancer small molecules within a complex spheroid model of solid tumors. . Complex spheroids include a stromal component modeled by human endothelial cells (HUVEC) and fibroblasts modeled by human mesenchymal stem cells (MSCs). The concentration ranges selected for each drug and investigational agent were based upon clinically achievable concentrations if the clinical Cmax of the agent was known.
Compounds. The drugs and investigational agents: alrizomadlin (APG-115; NSC831270), pelcitoclax (APG-1252; NSC835773), dasminapant (APG-1387;NSC834197), TAK-243 (NSC785004), copanlisib (NSC809693), olaparib (NSC753686), talazoparib (NSC767125), cobimetinib (NSC 768068), eltanexor (KPT-8602, NSC 794443), abemaciclib (NSC 768073), sotorasib (NSC818433), adagrasib (NSC 831453), MRTX-1133 (NSC 836407), Iadademestat (ORY1001, NSC 806812), and RMC-4630 (NSC839698), were obtained from the NCI Developmental Therapeutics Program Chemical Repository. The FDA-approved anticancer drug set is available from the Developmental Therapeutics Program at https://dtp.cancer.gov/organization/dscb/obtaining/available plates.htm. […] The stock solutions were prepared in dimethyl sulfoxide (DMSO, Sigma-Aldrich, St. Louis, MO, cat. D2650) at 800-fold the tested concentration and stored at -70 degrees C prior to their use. All drugs and investigational agents were tested over a range starting from a high concentration at or near the clinical Cmax and decreasing in half-log increments. If the clinical Cmax for an agent had not been determined, the highest concentration tested was 10 microM.
The patient-derived cancer (PDC) cell lines include five colon adenocarcinomas: 186277-243-T-J2-PDC, 616215-338-R-J1-PDC, 439559-082-T-J2-PDC, 463943-066-T-J2-PDC, and 519858-162-T-J1-PDC; three pancreatic carcinomas: 323965-272-R-J2-PDC, 521955-158-R6-J3-PDC, and 521955-158-R2-J5-PDC; two uterine sarcomas: 327498-152-R-J2-PDC and 993429-296-R-J1-PDC; two rhabdomyosarcomas: 755483-174-R-J1-PDC and 772245-204-R-J1-PDC; two soft tissue sarcomas: 126254-015-R-J1-PDC and 494315-158-R-J1-PDC; two malignant fibrous histiocytomas: 317291-083-R-J1-PDC and 596521-263-R-J1-PDC; two breast carcinomas: 171881-019-R-J1-PDC and 885512-296-R-J2-PDC; and one ovarian carcinoma: 6556581-035-R-J-PDC were obtained from the NCI PDMR, (https://pdmr.cancer.gov). The established cell lines HSSY-2 synovial sarcoma (RRID:CVCL 8719), SYO-1 synovial sarcoma (RRID:CVCL_7146), MPNST malignant peripheral neural sheath tumor were obtained from the Sloan Kettering Institute. The following established cell lines were purchased from the American Type Culture Collection (ATCC, Manassas, VA), Sor the received from the NCI repository:, PANC-1 pancreatic carcinoma (CRL-1469, RRID:CVCL_0480), OVCAR-5 ovarian carcinoma (RRID:CVCL_1628), OVCAR-8 ovarian carcinoma (RRID:CVCL_1629), , MCF-7 breast carcinoma (CRL-12584, RRID:CVCL_0031), MDA-MB-231 breast carcinoma (CRL-12532, RRID:CVCL_0062), NCI-H1876 small cell lung carcinoma (CRL-5902, RRID:CVCL_1503), NCI-H510A small cell lung carcinoma (HTB-184, RRID:CVCL_1565), NCI-H1417 (CRL-5869, RRID:CVCL_1469), and NCI-H196 small cell lung carcinoma (CRL-5823, RRID:CVCL_1509). Dr. Peter Houghton (Greehey Children's Cancer Research Institute, University of Texas Health Science Center, San Antonio, TX) provided Rh-18 rhabdomyosarcoma (RRID:CVCL_1659). Pooled donor human umbilical vein endothelial cells (HUVEC, Lonza, cat. CC-2519) and human mesenchymal stem cells (hMSC, Lonza, cat. PT-2501) were purchased from Lonza (Walkersville, MD).
Cell Culture. […]

[1] = second compound 0.03 µM, first compound 0.00316 µM
[2] = second compound 0.03 µM, first compound 0.01 µM
[3] = second compound 0.03 µM, first compound 0.0316 µM
[4] = second compound 0.03 µM, first compound 0.1 µM
[5] = second compound 0.03 µM, first compound 0.316 µM
[6] = second compound 0.03 µM, first compound 1 µM
[7] = second compound 0.0949 µM, first compound 0.00316 µM
[8] = second compound 0.0949 µM, first compound 0.01 µM
[9] = second compound 0.0949 µM, first compound 0.0316 µM
[10] = second compound 0.0949 µM, first compound 0.1 µM
[11] = second compound 0.0949 µM, first compound 0.316 µM
[12] = second compound 0.0949 µM, first compound 1 µM
[13] = second compound 0.3 µM, first compound 0.00316 µM
[14] = second compound 0.3 µM, first compound 0.01 µM
[15] = second compound 0.3 µM, first compound 0.0316 µM
[16] = second compound 0.3 µM, first compound 0.1 µM
[17] = second compound 0.3 µM, first compound 0.316 µM
[18] = second compound 0.3 µM, first compound 1 µM
[19] = second compound 0.949 µM, first compound 0.00316 µM
[20] = second compound 0.949 µM, first compound 0.01 µM
[21] = second compound 0.949 µM, first compound 0.0316 µM
[22] = second compound 0.949 µM, first compound 0.1 µM
[23] = second compound 0.949 µM, first compound 0.316 µM
[24] = second compound 0.949 µM, first compound 1 µM
[25] = second compound 3 µM, first compound 0.00316 µM
[26] = second compound 3 µM, first compound 0.01 µM
[27] = second compound 3 µM, first compound 0.0316 µM
[28] = second compound 3 µM, first compound 0.1 µM
[29] = second compound 3 µM, first compound 0.316 µM
[30] = second compound 3 µM, first compound 1 µM
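Further: spheroids exposed to compounds for seven days before readout.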

| SMILES | IC50 (second compound 0.03 µM) | IC50 (second compound 0.0949 µM) | IC50 (second compound 0.3 µM) | IC50 (second compound 0.949 µM) | IC50 (second compound 3 µM) | viability, T/C [1] | viability, T/C [2] | viability, T/C [3] | viability, T/C [4] | viability, T/C [5] | viability, T/C [6] | viability, T/C [7] | viability, T/C [8] | viability, T/C [9] | viability, T/C [10] | viability, T/C [11] | viability, T/C [12] | viability, T/C [13] | viability, T/C [14] | viability, T/C [15] | also measured |
| --- | --- | --- | --- | --- | --- | --- | --- | --- | --- | --- | --- | --- | --- | --- | --- | --- | --- | --- | --- | --- | --- |
| CCN1CCN(Cc2ccc(Nc3ncc(F)c(-c4cc(F)c5nc(C)n(C(C)C)c5c4)n3)nc2)CC1 + CCN1C(C(=O)NC23CCC(C(=O)O)(CC2)CC3)C(c2cccc(Cl)c2F)C2(C(=O)Nc3cc(Cl)ccc32)C12CCCCC2 | > 1 µM | > 1 µM | > 1 µM | > 1 µM | > 1 µM | 103% | 97.3% | 112% | 127% | 108% | 133% | 89.3% | 116% | 115% | 109% | 138% | 116% | 87% | 103% | 124% | viability, T/C [16]: 113%; viability, T/C [17]: 124%; viability, T/C [18]: 127%; viability, T/C [19]: 98.7%; viability, T/C [20]: 114%; viability, T/C [21]: 122%; viability, T/C [22]: 86.8%; viability, T/C [23]: 129%; viability, T/C [24]: 137%; viability, T/C [25]: 107%; viability, T/C [26]: 109%; viability, T/C [27]: 98.6%; viability, T/C [28]: 121%; viability, T/C [29]: 126%; viability, T/C [30]: 113% |
| O=C(c1ccc(F)c(F)c1Nc1ccc(I)cc1F)N1CC(O)([C@@H]2CCCCN2)C1 + CCN1C(C(=O)NC23CCC(C(=O)O)(CC2)CC3)C(c2cccc(Cl)c2F)C2(C(=O)Nc3cc(Cl)ccc32)C12CCCCC2 | 0.534 µM | 0.338 µM | 0.426 µM | 0.273 µM | 0.329 µM | 85.3% | 108% | 95.4% | 99.2% | 78.3% | 16% | 113% | 124% | 117% | 93.5% | 53% | 18.6% | 109% | 109% | 102% | viability, T/C [16]: 118%; viability, T/C [17]: 61%; viability, T/C [18]: 18.2%; viability, T/C [19]: 126%; viability, T/C [20]: 127%; viability, T/C [21]: 134%; viability, T/C [22]: 121%; viability, T/C [23]: 39.8%; viability, T/C [24]: 18.3%; viability, T/C [25]: 104%; viability, T/C [26]: 120%; viability, T/C [27]: 90%; viability, T/C [28]: 97.5%; viability, T/C [29]: 50.3%; viability, T/C [30]: 16.4% |
